The text below walks through data of US9745310B2 (SK BIOPHARMACEUTICALS CO., LTD., priority 2015, dated 2017).

Chain of human mGluR5 receptor (P41594 21-1212): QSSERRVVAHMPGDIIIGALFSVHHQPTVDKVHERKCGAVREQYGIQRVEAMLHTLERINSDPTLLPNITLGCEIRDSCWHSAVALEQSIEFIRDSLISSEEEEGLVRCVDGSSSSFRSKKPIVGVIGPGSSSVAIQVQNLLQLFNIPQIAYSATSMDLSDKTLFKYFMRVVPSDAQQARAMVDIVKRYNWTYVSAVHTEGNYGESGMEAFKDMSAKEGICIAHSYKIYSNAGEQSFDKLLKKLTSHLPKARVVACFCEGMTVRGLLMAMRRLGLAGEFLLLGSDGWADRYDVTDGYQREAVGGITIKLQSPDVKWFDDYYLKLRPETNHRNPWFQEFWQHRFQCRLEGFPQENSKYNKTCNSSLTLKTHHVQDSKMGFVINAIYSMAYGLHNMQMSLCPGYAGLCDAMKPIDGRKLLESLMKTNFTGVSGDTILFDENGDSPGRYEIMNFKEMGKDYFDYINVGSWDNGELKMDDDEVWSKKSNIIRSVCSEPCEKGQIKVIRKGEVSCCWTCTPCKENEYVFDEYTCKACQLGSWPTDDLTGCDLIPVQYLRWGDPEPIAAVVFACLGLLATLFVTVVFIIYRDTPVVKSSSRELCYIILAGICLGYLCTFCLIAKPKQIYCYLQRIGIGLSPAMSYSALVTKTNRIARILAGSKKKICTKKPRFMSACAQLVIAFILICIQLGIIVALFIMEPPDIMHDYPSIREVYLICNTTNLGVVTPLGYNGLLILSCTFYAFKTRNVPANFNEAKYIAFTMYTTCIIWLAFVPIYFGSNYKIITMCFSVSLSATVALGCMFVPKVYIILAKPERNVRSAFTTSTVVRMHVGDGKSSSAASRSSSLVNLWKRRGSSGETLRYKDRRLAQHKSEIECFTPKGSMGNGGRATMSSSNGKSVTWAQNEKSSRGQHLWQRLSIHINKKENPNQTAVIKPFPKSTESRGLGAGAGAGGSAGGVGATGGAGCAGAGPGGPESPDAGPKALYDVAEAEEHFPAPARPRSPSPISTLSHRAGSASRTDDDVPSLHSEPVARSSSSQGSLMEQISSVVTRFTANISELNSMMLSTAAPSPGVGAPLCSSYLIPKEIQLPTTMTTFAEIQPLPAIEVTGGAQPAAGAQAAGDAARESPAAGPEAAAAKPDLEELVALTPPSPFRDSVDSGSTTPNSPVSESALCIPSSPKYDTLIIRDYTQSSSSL

The target in this assay is human mGluR5 receptor (Homo sapiens (Human), UniProt P41594). The assay is described as follows: Calcium influx assay based on fluorescence (mGluR5 PAM activity). The conditions noted are these: human mGluR5 receptor-overexpressed HEK293 cell line; L-glutamate EC20; Fluo-4, FLIPR. The essentials:
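HEK293 cells overexpressing human mGluR5, loaded 1 h with Fluo-4 at 37° C. Compounds (10 μM to 10 nM final, 0.1–0.2% DMSO) added with an EC20 concentration of L-glutamate, and Ca2+ response read by FLIPR at room temperature. Activity scaled as 0% for EC20 glutamate alone and 100% for glutamate maximum.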
As a reminder, the EC50 is the concentration at which the effect is half-maximal. Take `Fc1cccc(-c2cnc3nc(COc4ccccn4)cn3c2)c1F` [Example 107, 6-(2,3-difluorophenyl)-2-(pyridin-2-yloxymethyl)imidazo[1,2-a]pyrimidine]: the EC50 lay within 500 to 1000 nM. As to `Fc1ccc(-c2cnc3nc(COc4ccccn4)cn3n2)c(F)c1` [Example 180, 2-(2,4-difluorophenyl)-6-((pyridin-2-yloxy)methyl)imidazo[1,2-b][1,2,4]triazine], the EC50 fell in the range of 100 to 500 nM. Consider `Cc1ccc(-c2cnc3nc(COc4ccc(F)cc4)cn3c2)cn1` [Example 92, 2-[(4-fluorophenoxy)methyl]-6-(6-methyl-3-pyridyl)imidazo[1,2-a]pyrimidine], for which the concentration for a half-maximal effect (EC50) was in the range of 100 to 500 nM. As for `Fc1ccc(-c2cnc3nc(COc4ccc(F)nc4)cn3c2)c(F)c1` [Example 157, 6-(2,4-difluorophenyl)-2-(6-fluoropyridin-3-yloxymethyl)imidazo[1,2-a]pyrimidine], the figure is 500 to 1000 nM. Consider `Fc1ccccc1-c1cnc2nc(COc3ccccc3)cn2c1` [Example 1, 6-(2-fluorophenyl)-2-phenoxymethylimidazo[1,2-a]pyrimidine], for which the EC50 fell in the range of 100 to 500 nM. Regarding `COc1cc(C#N)ccc1-c1cnc2nc(COc3ccccn3)cn2c1` [Example 136, 3-methoxy-4-[2-(2-pyridyloxymethyl)imidazo[1,2-a]pyrimidin-6-yl]benzonitrile], the half-maximal effective concentration (EC50) was 500 to 1000 nM. Consider `Nc1ccccc1-c1cnc2nc(COc3cccc(F)c3)cn2c1` [Example 44, 6-(2-aminophenyl)-2-(3-fluorophenoxymethyl)imidazo[1,2-a]pyrimidine], for which the concentration giving a half-maximal response (EC50) lay in the range of 100 to 500 nM. `CC(=O)OCc1cc(F)ccc1-c1cnc2nc(COc3ccccn3)cn2c1` [Example 196, [5-fluoro-2-[2-(2-pyridyloxymethyl)imidazo[1,2-a]pyrimidin-6-yl]phenyl]methyl acetate]: the EC50 lay within 100 to 500 nM. To `Fc1cc(-c2cnc3nc(COc4ccccc4)cn3c2)ccn1` [Example 35, 6-(2-fluoropyridin-4-yl)-2-phenoxymethylimidazo[1,2-a]pyrimidine] belongs 100 to 500 nM; to `Cc1c(F)cccc1-c1cnc2nc(COc3ccccn3)cn2c1` [Example 109, 6-(3-fluoro-2-methylphenyl)-2-(pyridin-2-yloxymethyl)imidazo[1,2-a]pyrimidine], 100 to 500 nM. Consider `Cc1ccccc1-c1cnc2nc(COc3ccc(F)cc3)cn2c1` [Example 60, 2-[(4-fluorophenoxy)methyl]6-(o-tolyl)imidazo[1,2-a]pyrimidine], for which the EC50 is 100 to 500 nM.

Regarding `COc1cc(C#N)ccc1-c1cnc2nc(COc3ccccc3)cn2c1` [Example 23, 6-(4-cyano-2-methoxyphenyl)-2-phenoxymethylimidazo[1,2-a]pyrimidine], the half-maximal effective concentration (EC50) is 100 to 500 nM. Take `Fc1ccc(-c2cnc3nc(COc4cccnc4)cn3c2)cc1` [Example 146, 6-(4-fluorophenyl)-2-(pyridin-3-yloxymethyl)imidazo[1,2-a]pyrimidine]: the EC50 is 500 to 1000 nM. `Cc1ccccc1-c1cnc2nc(COc3ccccn3)cn2c1` [Example 103, 6-(2-methylphenyl)-2-(pyridin-2-yloxymethyl)imidazo[1,2-a]pyrimidine]: the EC50 lay in the range of 100 to 500 nM. On to `N#Cc1ccc(-c2cnc3nc(COc4ccccn4)cn3c2)cc1` [Example 140, 4-[2-(2-pyridyloxymethyl)imidazo[1,2-a]pyrimidin-6-yl]benzonitrile], for which the EC50 fell in the range of 100 to 500 nM. As for `Cc1ccc(F)cc1-c1cnc2nc(COc3ccccn3)cn2c1` [Example 108, 6-(5-fluoro-2-methylphenyl)-2-(pyridin-2-yloxymethyl)imidazo[1,2-a]pyrimidine], the EC50 lay within 500 to 1000 nM.

In the case of `Fc1ccc(-c2cnc3nc(COc4ccnc(F)c4)cn3n2)c(F)c1` [Example 183, 2-(2,4-difluorophenyl)-6-((2-fluoropyridin-4-yloxy)methyl)imidazo[1,2-b][1,2,4]triazine], the 50% effective concentration (EC50) was in the range of 100 to 500 nM.
